Experiment [1] concerns HeLa cells. Briefly: HeLa viable cell count with DNA damaging agents (trypan blue). The class given is cell-based. Conditions: hydroxyurea 10 mM + gemcitabine 10 nM; high (10 mM) or low (2.5 mM) glucose. As to the method: After 24 hrs treatment, cells are allowed to grow for further 24 hrs (replacing the medium with normal medium), before being harvested and counted with trypan blue to measure viable cells.
HeLa cells were seeded in 6-well plates (200,00 cells/well), and left untreated, or treated with DNA damaging agents (hydroxyurea 10 mM+gemcitabine 10 nM), in high (10 mM) or low (2.5 mM) glucose, and treated with perphenazine (PPZ) as indicated. After 24 hrs treatment, cells are allowed to grow for further 24 hrs (replacing the medium with normal medium), before being harvested and counted with trypan blue to measure viable cells.
HeLa cells were seeded in 6-well plates (200,00 cells/well), and left untreated, or treated with DNA damaging agents (hydroxyurea 10 mM+gemcitabine 10 nM), in high (10 mM) or low (2.5 mM) glucose, and treated with FTY-720 (FTY) as indicated. After 24 hrs treatment, cells are allowed to grow for further 24 hrs (replacing the medium with normal medium), before being harvested and counted with trypan blue to measure viable cells.
HeLa cells were seeded in 6-well plates (200,00 cells/well), and left untreated, or treated with DNA damaging agents (hydroxyurea 10 mM+gemcitabine 10 nM), in high (10 mM) or low (2.5 mM) glucose, and treated with Ceramide as indicated. After 24 hrs treatment, cells are allowed to grow for further 24 hrs (replacing the medium with normal medium), before being harvested and counted with trypan blue to measure viable cells.
Cells were harvested by trypsinization, washed in PBS (pH 7.2), and then stained with trypan blue solution 04% v/v (Sigma Aldrich) added immediately prior to analysis. Cells ware then counted on a TC30 automated cell counter (Biorad).

Experiment [2] relates to HCT116 and HeLa cells. To be noted: low glucose conditions plus metformin, 24 h. As to the method: FIG. 14. […] (A) Images of HCT116 and HeLa cells cultured for 24 hours in either nutrient-rich DMEM (containing 10% FBS and 10 mM glucose), DMEM containing 2.5 mM glucose (glucose deprivation), DMEM with 0.1% serum (serum deprivation) or DMEM with no glutamine, no methionine and no cysteine (amino acids deprivation). Media were replenished every 6 hours. (B) Quantification of cell death of HCT116 and HeLa cells cultured as in A as measured by propidium iodide uptake using flow cytometry. […] Media were replenished every 6 hours.
FIG. 31. […] (B) Immunoblotting analysis of total cell lysates used for immunoprecipitation in (A).
Cells were harvested by trypsinization, washed in PBS (pH 7.2), and then stained with propidium iodide (10 mg/ml) added immediately prior to analysis. Cell fluorescence was then measured on a flow cytometer (FACSCalibur; Becton Dickinson, CA) and analyzed using CellQuest software.

`CN(C)C(=N)NC(=N)N.Cl` [metformin]: in experiment [1], the “cooperation with DNA damaging agents (viable cells)” value is on record as “potentiates the effect of DNA damaging agents in low glucose”. In addition, the cell death entry in experiment [2] is given as “marked cell death”.
